The assay deals with Prothrombin (Homo sapiens, UniProt P00734). Kind of assay: Inhibition of human thrombin after 15 mins by standard chromogenic assay.

`N=C(N)NOCCNC(=O)Cc1c(Cl)ccc(NCC(F)(F)c2cccc3cccnc23)c1F`: the Ki (in general, the equilibrium dissociation constant of an inhibitor or competing ligand from its target) was 0.0027 µM.
`N=C(N)NOCCNC(=O)Cc1c(Cl)ccc(NCC(F)(F)c2cnc3ccccc3c2)c1F` displayed a Ki of 0.169 µM.
Compound `Cc1nc(N)ccc1CNC(=O)Cc1c(Cl)ccc(NCC(F)(F)c2ccc(Cl)cn2)c1F` yielded a Ki of 0.0007 µM.
`NC(N)=NOCCNC(=O)Cc1c(Cl)ccc(NCC(F)(F)c2ccccn2)c1F` displayed an inhibition constant (Ki) of 0.0086 µM.
As for `Cc1nc(N)ccc1CNC(=O)Cc1c(Cl)ccc(NCC(F)(F)c2ccccc2)c1F`, affinity was put at a Ki of 0.0103 µM.
The compound `N=C(N)NOCCNC(=O)Cc1c(Cl)ccc(NS(=O)(=O)c2ccccc2)c1F` showed a Ki of 1.28 µM.
Consider `N=C(N)NOCCNC(=O)Cc1c(Cl)ccc(NCC2(c3ccccn3)CC2)c1F`, for which the Ki was 0.057 µM.
Compound `NC(N)=NOCCNC(=O)Cc1c(Cl)ccc(NCC(F)(F)c2cccnc2)c1F` gave an inhibition constant (Ki) of 0.0339 µM.
Under `CC(C)(CNc1ccc(Cl)c(CC(=O)NCCONC(=N)N)c1F)c1ccccn1` stands 0.058 µM.
As to `CC(C)(CNc1ccc(Cl)c(CC(=O)NCCONC(=N)N)c1F)c1cccnc1`, affinity was put at a Ki of 0.128 µM.
`N=C(N)NOCCNC(=O)Cc1c(Cl)ccc(NCC2(c3cccnc3)CC2)c1F` showed a Ki of 0.142 µM.
Regarding `NC(N)=NOCCNC(=O)Cc1c(Cl)ccc(NCC(F)(F)c2cccc3cnccc23)c1F`, the Ki stood at 0.0047 µM.
Compound `NC(N)=NOCCNC(=O)Cc1c(Cl)ccc(NCC(F)(F)c2ccc(Cl)cn2)c1F` showed a Ki of 0.0018 µM.
With `Cc1nc(N)ccc1CNC(=O)Cc1c(Cl)ccc(NCC(F)(F)c2ccc(Cl)c[n+]2[O-])c1F`, the Ki is 0.0009 µM.

(Values after ChEMBL document CHEMBL1140519, “2-(2-Chloro-6-fluorophenyl)acetamides as potent thrombin inhibitors” (Bioorg Med Chem Lett, 2007).)
